Source: patent US20230085307A1, “PYRIDAZINONE COMPOUND AND HERBICIDE” (NISSAN CHEMICAL CORPORATION, priority 2019, published 2023)

tested on: persian speedwell; assay: Test Example 4: herbicidal effect by soil treatment (Table 19, symbol R); assay type: in vivo, Persian speedwell (Veronica persica); conditions: amount of applied herbicide 320 g/ha
Method in brief: (§1)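 Herbicidal effect was rated 3 weeks after treatment, using the scoring criteria of an earlier test. The compound, formulated as an emulsion and diluted in water to a set herbicide amount, had been sprayed uniformly on soil over freshly sown seeds. Growth took place in a greenhouse at 25° C. to 30° C.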

| Compound | R: persian speedwell, herbicidal effect rating |
| --- | --- |
| Cc1nn(C)c(=O)c(-c2c(-c3ccc(Br)cc3)sc3ccc(F)cc23)c1O [2-205] | 5 (Herbicidal rate of 90% or more (almost completely withered)) |
| CCCC(=O)Oc1c(C)nn(C)c(=O)c1-c1c(-c2ccc(Br)cc2)sc2ccc(F)cc12 [2-206] | 5 (Herbicidal rate of 90% or more (almost completely withered)) |

tested on: lambsquarters; assay: Test Example 4: herbicidal effect by soil treatment (Table 19, symbol O); assay type: in vivo, lambsquarters (Chenopodium album); conditions: amount of applied herbicide 320 g/ha
Method in brief: as §1

| Compound | O: lambsquarters, herbicidal effect rating |
| --- | --- |
| Cc1nn(C)c(=O)c(-c2c(-c3ccc(Br)cc3)sc3ccc(F)cc23)c1O [2-205] | 5 (Herbicidal rate of 90% or more (almost completely withered)) |
| CCCC(=O)Oc1c(C)nn(C)c(=O)c1-c1c(-c2ccc(Br)cc2)sc2ccc(F)cc12 [2-206] | 4 (Herbicidal rate of 70% or more and less than 90%) |

tested on: southern crabgrass; assay: Test Example 5: herbicidal effect by foliage application, plastic box (Table 20, symbol F); assay type: in vivo, southern crabgrass (Digitaria ciliaris); conditions: foliage application, 320 g/ha, evaluated three weeks after application
Method in brief: (§2)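 Foliar spray test: emulsion formulation diluted in water to a set application rate, sprayed onto 14-day-old plants raised in diluvial soil at 25° C to 30° C under glass. Both herbicidal effect and crop effect rated visually three weeks later.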

| Compound | herbicidal effect on F: southern crabgrass (criteria 0-5) |
| --- | --- |
| Cc1nn(C)c(=O)c(-c2c(-c3ccc(Br)cc3)sc3ccc(F)cc23)c1O [2-205] | 5 (Herbicidal rate of 90% or more (almost completely withered)) |
| CCCC(=O)Oc1c(C)nn(C)c(=O)c1-c1c(-c2ccc(Br)cc2)sc2ccc(F)cc12 [2-206] | 3 (Herbicidal rate of 40% or more and less than 70%) |

tested on: redroot pigweed; assay: Test Example 5: herbicidal effect by foliage application, plastic box (Table 20, symbol N); assay type: in vivo, redroot pigweed (Amaranthus retroflexus); conditions: foliage application, 320 g/ha, evaluated three weeks after application
Method in brief: as §2

| Compound | herbicidal effect on N: redroot pigweed (criteria 0-5) |
| --- | --- |
| Cc1nn(C)c(=O)c(-c2c(-c3ccc(Br)cc3)sc3ccc(F)cc23)c1O [2-205] | 5 (Herbicidal rate of 90% or more (almost completely withered)) |
| CCCC(=O)Oc1c(C)nn(C)c(=O)c1-c1c(-c2ccc(Br)cc2)sc2ccc(F)cc12 [2-206] | 5 (Herbicidal rate of 90% or more (almost completely withered)) |

tested on: late watergrass; assay: Test Example 1: herbicidal activity, application before weed generation under submerged conditions (Table 16, symbol A); assay type: in vivo, late watergrass (Echinochloa oryzicola); conditions: 320 g/ha applied herbicide
Method in brief: (§3)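 Submerged Wagner pots (alluvial soil, 4 cm water) sown with weed seeds and planted with 2.5-leaf rice seedlings; emulsifiable concentrate diluted in water applied to water surface on sowing day. Held in greenhouse at 25-30 °C; injury scored 0-5 by herbicidal rate after three weeks.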

| Compound | Herbicidal effect on A: late watergrass (grade 0-5) |
| --- | --- |
| Cc1nn(C)c(=O)c(-c2c(-c3ccc(Br)cc3)sc3ccc(F)cc23)c1O [2-205] | 4 (Herbicidal rate of 70% or more and less than 90%) |
| CCCC(=O)Oc1c(C)nn(C)c(=O)c1-c1c(-c2ccc(Br)cc2)sc2ccc(F)cc12 [2-206] | 5 (Herbicidal rate of 90% or more (almost completely withered)) |

tested on: oval-leafed pondweed; assay: Test Example 1: herbicidal activity, application before weed generation under submerged conditions (Table 16, symbol C); assay type: in vivo, oval-leafed pondweed (Monochoria vaginalis); conditions: 320 g/ha applied herbicide
Method in brief: as §3

| Compound | Herbicidal effect on C: oval-leafed pondweed (grade 0-5) |
| --- | --- |
| Cc1nn(C)c(=O)c(-c2c(-c3ccc(Br)cc3)sc3ccc(F)cc23)c1O [2-205] | 1 (Herbicidal rate of 5% or more and less than 20%) |
| CCCC(=O)Oc1c(C)nn(C)c(=O)c1-c1c(-c2ccc(Br)cc2)sc2ccc(F)cc12 [2-206] | 4 (Herbicidal rate of 70% or more and less than 90%) |

tested on: rice flat sedge; assay: Test Example 3: herbicidal effect by foliage application, Wagner pot (Table 18, symbol E); assay type: in vivo, rice flat sedge (Cyperus iria); conditions: amount of applied herbicide 320 g/ha
Method in brief: (§4)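 Plants were sown in alluvial soil held under 0.1–0.5 cm standing water and grown 14 days in a greenhouse at 25–30 °C. An emulsifiable formulation, water-diluted to the set dose, was then sprayed onto the foliage, and effects were scored three weeks later using previously defined criteria.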

| Compound | herbicidal effect on E: rice flat sedge |
| --- | --- |
| Cc1nn(C)c(=O)c(-c2c(-c3ccc(Br)cc3)sc3ccc(F)cc23)c1O [2-205] | 5 (Herbicidal rate of 90% or more (almost completely withered)) |
| CCCC(=O)Oc1c(C)nn(C)c(=O)c1-c1c(-c2ccc(Br)cc2)sc2ccc(F)cc12 [2-206] | 5 (Herbicidal rate of 90% or more (almost completely withered)) |

tested on: Italian ryegrass; assay: Test Example 4: herbicidal effect by soil treatment (Table 19, symbol K); assay type: in vivo, Italian ryegrass (Lolium multiflorum); conditions: amount of applied herbicide 320 g/ha
Method in brief: as §1

| Compound | K: Italian ryegrass, herbicidal effect rating |
| --- | --- |
| Cc1nn(C)c(=O)c(-c2c(-c3ccc(Br)cc3)sc3ccc(F)cc23)c1O [2-205] | 5 (Herbicidal rate of 90% or more (almost completely withered)) |
| CCCC(=O)Oc1c(C)nn(C)c(=O)c1-c1c(-c2ccc(Br)cc2)sc2ccc(F)cc12 [2-206] | 5 (Herbicidal rate of 90% or more (almost completely withered)) |

tested on: windgrass; assay: Test Example 5: herbicidal effect by foliage application, plastic box (Table 20, symbol L); assay type: in vivo, windgrass (Apera spica-venti); conditions: foliage application, 320 g/ha, evaluated three weeks after application
Method in brief: as §2

| Compound | herbicidal effect on L: windgrass (criteria 0-5) |
| --- | --- |
| Cc1nn(C)c(=O)c(-c2c(-c3ccc(Br)cc3)sc3ccc(F)cc23)c1O [2-205] | 5 (Herbicidal rate of 90% or more (almost completely withered)) |
| CCCC(=O)Oc1c(C)nn(C)c(=O)c1-c1c(-c2ccc(Br)cc2)sc2ccc(F)cc12 [2-206] | 4 (Herbicidal rate of 70% or more and less than 90%) |

tested on: chickweed; assay: Test Example 4: herbicidal effect by soil treatment (Table 19, symbol P); assay type: in vivo, common chickweed (Stellaria media); conditions: amount of applied herbicide 320 g/ha
Method in brief: as §1

| Compound | P: chickweed, herbicidal effect rating |
| --- | --- |
| Cc1nn(C)c(=O)c(-c2c(-c3ccc(Br)cc3)sc3ccc(F)cc23)c1O [2-205] | 3 (Herbicidal rate of 40% or more and less than 70%) |
| CCCC(=O)Oc1c(C)nn(C)c(=O)c1-c1c(-c2ccc(Br)cc2)sc2ccc(F)cc12 [2-206] | 4 (Herbicidal rate of 70% or more and less than 90%) |

tested on: Chinese sprangletop; assay: Test Example 3: herbicidal effect by foliage application, Wagner pot (Table 18, symbol D); assay type: in vivo, chinese sprangletop (Leptochloa chinensis); conditions: amount of applied herbicide 320 g/ha
Method in brief: as §4

| Compound | herbicidal effect on D: Chinese sprangletop |
| --- | --- |
| Cc1nn(C)c(=O)c(-c2c(-c3ccc(Br)cc3)sc3ccc(F)cc23)c1O [2-205] | 4 (Herbicidal rate of 70% or more and less than 90%) |
| CCCC(=O)Oc1c(C)nn(C)c(=O)c1-c1c(-c2ccc(Br)cc2)sc2ccc(F)cc12 [2-206] | 4 (Herbicidal rate of 70% or more and less than 90%) |

tested on: barnyard grass; assay: Test Example 5: herbicidal effect by foliage application, plastic box (Table 20, symbol H); assay type: in vivo, barnyard grass (Echinochloa crus-galli); conditions: foliage application, 320 g/ha, evaluated three weeks after application
Method in brief: as §2

| Compound | herbicidal effect on H: barnyard grass (criteria 0-5) |
| --- | --- |
| Cc1nn(C)c(=O)c(-c2c(-c3ccc(Br)cc3)sc3ccc(F)cc23)c1O [2-205] | 5 (Herbicidal rate of 90% or more (almost completely withered)) |
| CCCC(=O)Oc1c(C)nn(C)c(=O)c1-c1c(-c2ccc(Br)cc2)sc2ccc(F)cc12 [2-206] | 5 (Herbicidal rate of 90% or more (almost completely withered)) |

tested on: blackgrass; assay: Test Example 5: herbicidal effect by foliage application, plastic box (Table 20, symbol J); assay type: in vivo, blackgrass (Alopecurus myosuroides); conditions: foliage application, 320 g/ha, evaluated three weeks after application
Method in brief: as §2

| Compound | herbicidal effect on J: blackgrass (criteria 0-5) |
| --- | --- |
| Cc1nn(C)c(=O)c(-c2c(-c3ccc(Br)cc3)sc3ccc(F)cc23)c1O [2-205] | 4 (Herbicidal rate of 70% or more and less than 90%) |
| CCCC(=O)Oc1c(C)nn(C)c(=O)c1-c1c(-c2ccc(Br)cc2)sc2ccc(F)cc12 [2-206] | 4 (Herbicidal rate of 70% or more and less than 90%) |

tested on: chickweed; assay: Test Example 5: herbicidal effect by foliage application, plastic box (Table 20, symbol P); assay type: in vivo, common chickweed (Stellaria media); conditions: foliage application, 320 g/ha, evaluated three weeks after application
Method in brief: as §2

| Compound | herbicidal effect on P: chickweed (criteria 0-5) |
| --- | --- |
| Cc1nn(C)c(=O)c(-c2c(-c3ccc(Br)cc3)sc3ccc(F)cc23)c1O [2-205] | 5 (Herbicidal rate of 90% or more (almost completely withered)) |
| CCCC(=O)Oc1c(C)nn(C)c(=O)c1-c1c(-c2ccc(Br)cc2)sc2ccc(F)cc12 [2-206] | 5 (Herbicidal rate of 90% or more (almost completely withered)) |

tested on: velvetleaf; assay: Test Example 5: herbicidal effect by foliage application, plastic box (Table 20, symbol M); assay type: in vivo, velvetleaf (Abutilon theophrasti); conditions: foliage application, 320 g/ha, evaluated three weeks after application
Method in brief: as §2

| Compound | herbicidal effect on M: velvetleaf (criteria 0-5) |
| --- | --- |
| Cc1nn(C)c(=O)c(-c2c(-c3ccc(Br)cc3)sc3ccc(F)cc23)c1O [2-205] | 5 (Herbicidal rate of 90% or more (almost completely withered)) |
| CCCC(=O)Oc1c(C)nn(C)c(=O)c1-c1c(-c2ccc(Br)cc2)sc2ccc(F)cc12 [2-206] | 5 (Herbicidal rate of 90% or more (almost completely withered)) |

tested on: windgrass; assay: Test Example 4: herbicidal effect by soil treatment (Table 19, symbol L); assay type: in vivo, windgrass (Apera spica-venti); conditions: amount of applied herbicide 320 g/ha
Method in brief: as §1

| Compound | L: windgrass, herbicidal effect rating |
| --- | --- |
| Cc1nn(C)c(=O)c(-c2c(-c3ccc(Br)cc3)sc3ccc(F)cc23)c1O [2-205] | 0 (Herbicidal rate of 5% or less (almost no effect)) |
| CCCC(=O)Oc1c(C)nn(C)c(=O)c1-c1c(-c2ccc(Br)cc2)sc2ccc(F)cc12 [2-206] | 2 (Herbicidal rate of 20% or more and less than 40%) |

tested on: barnyard grass; assay: Test Example 3: herbicidal effect by foliage application, Wagner pot (Table 18, symbol H); assay type: in vivo, barnyard grass (Echinochloa crus-galli); conditions: amount of applied herbicide 320 g/ha
Method in brief: as §4

| Compound | herbicidal effect on H: barnyard grass |
| --- | --- |
| Cc1nn(C)c(=O)c(-c2c(-c3ccc(Br)cc3)sc3ccc(F)cc23)c1O [2-205] | 5 (Herbicidal rate of 90% or more (almost completely withered)) |
| CCCC(=O)Oc1c(C)nn(C)c(=O)c1-c1c(-c2ccc(Br)cc2)sc2ccc(F)cc12 [2-206] | 5 (Herbicidal rate of 90% or more (almost completely withered)) |

tested on: Japanese bulrush; assay: Test Example 1: herbicidal activity, application before weed generation under submerged conditions (Table 16, symbol B); assay type: in vivo, Japanese bulrush (Schoenoplectus juncoides); conditions: 320 g/ha applied herbicide
Method in brief: as §3

| Compound | Herbicidal effect on B: Japanese bulrush (grade 0-5) |
| --- | --- |
| Cc1nn(C)c(=O)c(-c2c(-c3ccc(Br)cc3)sc3ccc(F)cc23)c1O [2-205] | 3 (Herbicidal rate of 40% or more and less than 70%) |
| CCCC(=O)Oc1c(C)nn(C)c(=O)c1-c1c(-c2ccc(Br)cc2)sc2ccc(F)cc12 [2-206] | 5 (Herbicidal rate of 90% or more (almost completely withered)) |

tested on: wild oat; assay: Test Example 5: herbicidal effect by foliage application, plastic box (Table 20, symbol I); assay type: in vivo, wild oat (Avena fatua); conditions: foliage application, 320 g/ha, evaluated three weeks after application
Method in brief: as §2

| Compound | herbicidal effect on I: wild oat (criteria 0-5) |
| --- | --- |
| Cc1nn(C)c(=O)c(-c2c(-c3ccc(Br)cc3)sc3ccc(F)cc23)c1O [2-205] | 4 (Herbicidal rate of 70% or more and less than 90%) |
| CCCC(=O)Oc1c(C)nn(C)c(=O)c1-c1c(-c2ccc(Br)cc2)sc2ccc(F)cc12 [2-206] | 4 (Herbicidal rate of 70% or more and less than 90%) |
